Assay results taken from publication PMC5643545, “A novel library of -arylketones as potential inhibitors of α-glucosidase: Their design, synthesis, in vitro and in vivo studies” (Scientific Reports, 2017).

Legend:
[1] = system: NA-STZ-diabetic mice; parameters: method as in PMID 20879744; details: 10, 31.2 and 56.2 mg/Kg; cited from earlier work
[2] = target: T1, α-glucosidase (yeast origin) (Saccharomyces cerevisiae, UniProt P53341); assay: α-glucosidase (yeast) inhibition assay, PNPG substrate, 96-well; type: biochemical; details: two independent assays, performed in duplicate, 37 °C, 10 min, read-out: IC50s α-glucosidase (yeast)
T1 construct: purchased Sigma Aldrich
Protocol: The test compounds were dissolved and diluted in dimethyl sulfoxide (DMSO). They were placed in the plate along with the substrate and 10 mM of potassium sulphate buffer. They were then reacted with appropriate enzymes. After incubating the plates for ten minutes, the absorbance of the wells were measured at 430 nM. The increase in abundance (ΔA) was compared against the control i.e. buffer.
The inhibitory effect of the synthesized compounds on α-glucosidase (yeast origin), α-fucosidase (bovine kidney origin) and α-mannosidase (jack bean origin) inhibitory activity was determined in 96-well plates employing the substrate PNPG and 4-nitrophenyl α-D-glucopyranoside according to the procedure previously reported by Ferreres et al.[42]. Prior to use, all test compounds were solubilised in solvent, dimethylsulfoxide (DMSO), and then further diluted in DMSO to acquire the desired final maximum test concentration. […] The absorbance was measured spectrophotometrically at 430 nm (Spectra Max M5e micro plate reader). The increase in absorbance (ΔA) was compared with that of the control (buffer instead of test compound) to compute the inhibitory concentrations (IC50) which was determined from two independent assays, performed in duplicate.

[3] = target: T2, α-fucosidase (bovine kidney origin) (Bos taurus, UniProt Q2KIM0); assay: α-fucosidase inhibition assay, 96-well; type: biochemical; details: two independent assays, performed in duplicate; read-out: IC50s α-fucosidase (bovine kidney)
T2 construct: purchased Sigma Aldrich; host or cells: bovine kidney
T2 sequence (Q2KIM0 23-468): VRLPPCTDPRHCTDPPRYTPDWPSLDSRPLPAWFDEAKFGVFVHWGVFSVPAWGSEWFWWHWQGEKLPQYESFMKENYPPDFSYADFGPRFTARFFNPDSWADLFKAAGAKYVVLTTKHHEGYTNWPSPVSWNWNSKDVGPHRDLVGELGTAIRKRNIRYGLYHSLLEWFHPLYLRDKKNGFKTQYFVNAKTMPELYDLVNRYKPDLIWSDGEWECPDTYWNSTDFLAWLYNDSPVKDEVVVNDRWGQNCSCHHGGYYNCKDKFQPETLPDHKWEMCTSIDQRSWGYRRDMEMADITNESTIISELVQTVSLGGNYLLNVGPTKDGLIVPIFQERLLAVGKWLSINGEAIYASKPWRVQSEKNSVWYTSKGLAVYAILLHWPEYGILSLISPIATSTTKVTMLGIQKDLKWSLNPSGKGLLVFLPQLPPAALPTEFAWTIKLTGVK
Protocol: (§1) To assess the inhibitory effect and also the extent of selectivity our library was against α-glucosidase (yeast origin), α-fucosidase (bovine kidney origin) and α-mannosidase (jack bean origin) (in 96-well plates employing 4-nitrophenyl-α-D-glucopyranoside (PNPG) as substrate) (Table 1). The test compounds were dissolved and diluted in dimethyl sulfoxide (DMSO). They were placed in the plate along with the substrate and 10 mM of potassium […] buffer. They were then reacted with appropriate enzymes. After incubating the plates for ten minutes, the absorbance of the wells were measured at […]. The increase in […] (ΔA) was compared against the control i.e. buffer.
(§2) The inhibitory effect of the synthesized compounds on α-glucosidase (yeast origin), α-fucosidase (bovine kidney origin) and α-mannosidase (jack bean origin) inhibitory activity was determined in 96-well plates employing the substrate PNPG and 4-nitrophenyl α-D-glucopyranoside according to the procedure previously reported by Ferreres et al.[42]. […] The absorbance was measured spectrophotometrically at 430 nm (Spectra Max M5e micro plate reader). The increase in absorbance (ΔA) was compared with that of the control (buffer instead of test compound) to compute the inhibitory concentrations (IC50) which was determined from two independent assays, performed in duplicate. […]

[4] = target: T3, α-mannosidase (jack bean origin) (Canavalia ensiformis, UniProt C0HJB3); assay: α-mannosidase inhibition assay, 96-well; type: biochemical; details: two independent assays, performed in duplicate; read-out: IC50s α-mannosidase (jack bean)
T3 construct: purchased Sigma Aldrich; host or cells: jack bean
T3 sequence (C0HJB3 1-981): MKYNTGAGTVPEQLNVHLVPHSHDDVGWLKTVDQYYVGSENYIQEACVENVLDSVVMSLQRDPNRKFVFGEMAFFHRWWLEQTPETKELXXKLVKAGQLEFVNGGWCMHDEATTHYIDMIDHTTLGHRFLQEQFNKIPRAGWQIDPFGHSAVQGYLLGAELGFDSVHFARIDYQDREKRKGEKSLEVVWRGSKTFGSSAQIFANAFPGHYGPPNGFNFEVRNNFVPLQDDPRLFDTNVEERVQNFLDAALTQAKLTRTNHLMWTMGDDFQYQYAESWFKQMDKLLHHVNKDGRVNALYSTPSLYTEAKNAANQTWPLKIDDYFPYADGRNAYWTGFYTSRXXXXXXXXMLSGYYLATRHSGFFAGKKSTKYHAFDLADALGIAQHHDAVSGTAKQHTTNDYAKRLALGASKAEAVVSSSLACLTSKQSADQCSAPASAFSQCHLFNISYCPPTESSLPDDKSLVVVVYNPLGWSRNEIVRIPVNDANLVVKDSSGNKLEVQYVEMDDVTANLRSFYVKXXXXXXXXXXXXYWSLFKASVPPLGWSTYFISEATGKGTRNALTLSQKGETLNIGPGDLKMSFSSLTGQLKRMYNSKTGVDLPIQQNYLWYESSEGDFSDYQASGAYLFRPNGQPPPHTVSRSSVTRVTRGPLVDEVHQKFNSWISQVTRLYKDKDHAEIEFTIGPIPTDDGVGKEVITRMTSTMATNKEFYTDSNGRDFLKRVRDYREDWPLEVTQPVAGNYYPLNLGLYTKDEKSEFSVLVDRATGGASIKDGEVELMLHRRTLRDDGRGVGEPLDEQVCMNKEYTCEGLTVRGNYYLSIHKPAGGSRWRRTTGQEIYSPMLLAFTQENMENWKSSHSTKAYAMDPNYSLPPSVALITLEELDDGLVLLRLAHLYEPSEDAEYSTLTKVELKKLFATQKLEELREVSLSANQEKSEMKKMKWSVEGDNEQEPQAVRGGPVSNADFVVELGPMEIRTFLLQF
Protocol: as §1, §2

[5] = parameters: method as in doi:10.1016/S0065-7743(08)60834-9; details: cited from earlier work

T1 sequence (P53341 whole entry): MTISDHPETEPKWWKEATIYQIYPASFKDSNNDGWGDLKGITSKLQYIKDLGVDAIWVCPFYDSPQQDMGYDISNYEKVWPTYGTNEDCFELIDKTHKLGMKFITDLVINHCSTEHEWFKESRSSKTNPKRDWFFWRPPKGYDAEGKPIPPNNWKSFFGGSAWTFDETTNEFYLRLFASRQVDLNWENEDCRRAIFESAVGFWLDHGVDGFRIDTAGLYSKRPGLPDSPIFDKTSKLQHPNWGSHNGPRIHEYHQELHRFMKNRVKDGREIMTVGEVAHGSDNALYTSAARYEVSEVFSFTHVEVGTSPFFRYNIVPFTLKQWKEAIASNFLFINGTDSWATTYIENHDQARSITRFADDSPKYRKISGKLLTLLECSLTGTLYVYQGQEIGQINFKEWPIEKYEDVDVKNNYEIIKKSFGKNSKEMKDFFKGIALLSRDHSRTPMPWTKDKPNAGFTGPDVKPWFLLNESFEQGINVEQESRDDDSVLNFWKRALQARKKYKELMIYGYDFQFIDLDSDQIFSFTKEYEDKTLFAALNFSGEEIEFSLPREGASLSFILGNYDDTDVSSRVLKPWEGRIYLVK

In the case of `CCCC=C1OC(=O)c2ccccc21` [compound 2], the blood glucose level [1] is listed as “lowered blood glucose level”.

In the case of `O=C(Cc1ccccc1Br)c1ccccc1C(=O)NCCc1ccccc1` [3o], the IC50 [2] is reported as 6.93 µM, the IC50 [3] is reported as > 50 µM and the IC50 [4] is reported as > 50 µM.

For `CS(=O)(=O)c1ccc(-n2nc(C(F)(F)F)cc2-c2ccc(F)cc2)cc1` [SC-58125], the half-life [5] is given as ~ 200 h.
